The results in this text go back to article PMC7822874, “Chemoprotective antimalarials identified through quantitative high-throughput screening of Plasmodium blood and liver stage parasites” (Scientific Reports, 2021).

This assay deals with Plasmodium falciparum Dd2 asexual blood stage parasites. The assay can be described thus: microbe, parasite or virus in culture. The conditions noted are these: Plasmodium falciparum, DD2, Erythrocyte, 72 h; read-out: AC50. The arrangement: species or system Plasmodium falciparum Dd2 in human erythrocytes; single determination (one 11-point concentration-response curve).
By AC50 is commonly meant the concentration giving half of the maximal activity seen. With `COc1cccc(CN2C(=O)OC3(CCN(Cc4ccc5c(c4)CCO5)CC3)C2(C)c2cccnc2)c1` (stereo not drawn) [NCGC00415555-01], the half-maximal activity concentration (AC50) was determined as 4.73 µM.

As to `CCOC(=O)c1ccc2c(c1)N(C(CC)C(=O)Nc1ccccc1OC)C(=O)c1ccccc1S2` (stereo not drawn) [NCGC00132065-01], the AC50 stood at 9.44 µM.

In the case of `COc1ccc2c(c1)C=C([C@@H]1C[C@H]3CN(c4ccccc4)C(=O)[C@]34CCCN14)CO2` [MLS000734809-01], the half-maximal activity concentration (AC50) amounted to 0.944 µM.

Turning to `CCNc1nc(NC(C)CC)nc(ON=C(C)C)n1` (stereo not drawn) [MLS000856336-01], the AC50 worked out at 8.41 µM.

Turning to `Cc1cc(O)c(-c2ccnc3cc(-c4ccccc4)nn23)cc1Cl` [NCGC00164840-01], the AC50 came to 1.88 µM.

Turning to `COc1cccc(CN2C(=O)OC3(CCN(Cc4c[nH]c5ccccc45)CC3)C2(C)c2cccnc2)c1` (stereo not drawn) [NCGC00415482-01], the AC50 amounted to 8.41 µM.

Turning to `COc1cc(O)c(C(CCN2CCCCC2)c2cc(OC)c(OC)c(OC)c2)c(OC)c1` (stereo not drawn) [MLS000879476-01], the concentration at half-maximal activity (AC50) amounted to 2.66 µM.

Consider `CCOC(=O)c1c(CN2CCCCC2)n(C)c2cc(Br)c(O)cc12` [MLS000523143-01], for which the concentration at half-maximal activity (AC50) came out at 7.5 µM.

As for `CC1=C[C@@H](CNC(C)C)[C@H](C(C)C)C[C@H]1Cc1nnc(-c2ccc(C)cc2)o1` [NCGC00394176-01], the AC50 worked out at 13.7 µM.

`CC(C)(C)c1c[nH]c([C@@H]2COCCN2Cc2ccccc2O)n1` [NCGC00395090-01]: the half-maximal activity concentration (AC50) is 13.7 µM.

Regarding `CC(C)(Oc1nn(CC2CC2)c2ccc(CN3CCCC3)cc12)C(N)=O` [NCGC00419502-01], the AC50 was 13.7 µM.

In the case of `CCC(C)(C)n1nnnc1C(c1ccccc1OC)N1CCN(C(=O)c2ccco2)CC1` (stereo not drawn) [MLS001221981-01], the concentration at half-maximal activity (AC50) was 15 µM.

On to `OC(CNCC(c1ccco1)N1CCCCC1)c1ccccc1` (stereo not drawn) [MLS000097545-01], for which the AC50 stood at 5.96 µM.

As to `COc1cccc(NC(=O)N[C@H]2C[C@@H](c3nc(C)no3)N(C)C2)c1` [NCGC00395440-01], the half-maximal activity concentration (AC50) is 17.2 µM.

As for `COc1ccccc1NCc1cc(=O)oc2c(C)c(O)ccc12` [MLS001175266-01], the concentration at half-maximal activity (AC50) was 5.96 µM.

Consider `O=C(Nc1ccc(N2CCOCC2)c(Cl)c1)c1nc[nH]n1` [MLS000072688-01], for which the half-maximal activity concentration (AC50) was determined as 9.44 µM.

On to `CCC(=O)N1CCc2cc(Br)cc(S(=O)(=O)C3(C(=O)OC)CC3)c21` [MLS000047144-01], for which the AC50 was found to be 3.76 µM.

As for `Cn1cccc1CN1CCC(N2CC(OCC3CC3)C23CCCCC3)CC1` (stereo not drawn) [NCGC00463411-01], the AC50 was found to be 7.5 µM.

Regarding `CC1=C[C@@H](CN(C)C)[C@H](C(C)C)C[C@H]1Cc1nc2cccc(C)c2[nH]1` [NCGC00393074-01], the AC50 was determined as 15.3 µM.

`O=c1c2ccccc2sc2nc(C3CCCCC3)n(Cc3ccco3)c(=O)c12` [MLS000084065-01]: the AC50 is 7.5 µM.

Regarding `Cc1cc(OC2CN([S+](=O)([O-])c3cccs3)C2)ccc1F` [NCGC00476695-01], the AC50 turned out to be 15.3 µM.

On to `CCOc1c(Cl)cc(CNC(C)C(O)c2ccccc2)cc1OC` (stereo not drawn) [MLS000679789-01], for which the concentration at half-maximal activity (AC50) is 6.68 µM.

As to `NC1=NC(c2ccccc2C(F)(F)F)N(c2ccc(F)c(Cl)c2)C(N)=N1` (stereo not drawn) [MLS001199775-01], the concentration at half-maximal activity (AC50) stood at 11.9 µM.

Regarding `COc1cc2nc(SCc3ccc(F)cc3)n3nc(CCn4c(C)nc5ccccc54)nc3c2cc1OC` [NCGC00108638-01], the AC50 amounted to 2.99 µM.

Regarding `NC(=O)C1CCN(CC(=O)Nc2cccc(C(=O)Nc3cccc(C(F)(F)F)c3)c2)CC1` [MLS000334956-01], the AC50 is 6.68 µM.

Take `CN(C)CCNC(=O)c1cc(-c2ccccc2F)cc2c1OCCN2Cc1cccnc1` [NCGC00416987-01]: the concentration at half-maximal activity (AC50) was 6.85 µM.

Consider `Oc1ccc(Cl)cc1CN1CCN(Cc2ccccc2)CC1` [MLS000530315-01], for which the concentration at half-maximal activity (AC50) is 0.944 µM.

In the case of `CC(C)CN1C(=O)c2ccccc2C(C(=O)Nc2nccs2)C12CCCC2` (stereo not drawn) [NCGC00423343-01], the AC50 came to 8.41 µM.

For the molecule `COc1ccc(C(O)(CCC(C)C)C(CN2CCOCC2)c2ccc(Cl)cc2)cc1` (stereo not drawn) [MLS001200330-01], the AC50 amounted to 6.68 µM.

For `COc1ccc(OCC(=O)NCC2(N3CCN(C)CC3)CCCCC2)cc1` [NCGC00118575-01], the concentration at half-maximal activity (AC50) amounted to 1.88 µM.

As to `CCCN(CCC)CC(O)Cn1cc(/C=C/C(=O)c2ccc(C)cc2)c2ccccc21` (stereo not drawn) [NCGC00114909-01], the AC50 turned out to be 4.73 µM.

For `CCC1=C(C(=O)OC)C(c2cccc(F)c2)N2C(CC(=O)NCCc3cccs3)=CSC2=N1` (stereo not drawn) [NCGC00473313-01], the AC50 was 9.44 µM.

On to `COc1ccc(C2=[N+](C)CCn3cccc32)c(OC)c1` [MLS000705896-01], for which the half-maximal activity concentration (AC50) turned out to be 10.6 µM.

Consider `CCOC(=O)C1CCN(C(=O)c2cc3c(n2C)CCN(Cc2ccccc2)C3)CC1` [NCGC00430564-01], for which the half-maximal activity concentration (AC50) amounted to 10.6 µM.

Take `CCN1CCN(Cc2cc(Br)cc(Br)c2O)CC1` [MLS000530316-01]: the AC50 came to 7.5 µM.

Regarding `Cc1occc1C(=O)N1CCN(C(c2ccccc2)c2ccccc2)CC1` [MLS000089076-01], the AC50 is 10.6 µM.

For `Cn1c(=O)[nH]c2nnc(-c3ccc(Cl)c(Cl)c3)nc2c1=O` [MLS000768805-01], the AC50 was 8.41 µM.

Turning to `COc1cc(C2NCc3ccccc3-n3cccc32)ccc1O` (stereo not drawn) [MLS000047988-01], the AC50 was determined as 2.66 µM.

For the molecule `CN(Cc1ccccc1)C(=O)[C@H]1O[C@H](CCN2CCN(c3ccc(F)cc3)CC2)CC[C@@H]1O` [NCGC00401502-01], the AC50 was found to be 5.96 µM.

Consider `O=c1cc(-c2ccccc2)c2ccc3c(c2o1)CN(Cc1ccccc1)CO3` [NCGC00116340-01], for which the AC50 came out at 2.66 µM.

Turning to `Fc1ccccc1CN1CCC[C@H]1c1nc(-c2ccnc(N3CCOCC3)c2)no1` [NCGC00395913-01], the AC50 was 15.3 µM.

For `Cc1cc(OC(C)C(=O)NCCc2c[nH]c3ccccc23)c2c(C)cc(=O)oc2c1` (stereo not drawn) [MLS001158613-01], the concentration at half-maximal activity (AC50) is 2.66 µM.

Take `O=c1nc(C2CCN(S(=O)(=O)c3ccc4c(c3)OCCO4)CC2)[nH]c2c1nnn2Cc1ccc(F)cc1` [MLS001216943-01]: the AC50 was 8.41 µM.

On to `Cc1cc(N(C)Cc2ccccc2)nc2cc(O)ccc12` [MLS001199318-01], for which the AC50 amounted to 2.37 µM.

`Clc1ccc(NNc2ccnc3cc(Cl)ccc23)cc1` [MLS000537447-01]: the AC50 came to 1.5 µM.

Take `O=C(Nc1ccc(F)cc1F)N1CCOc2ccc(CN3CCc4ccccc4C3)cc2C1` [NCGC00471236-01]: the half-maximal activity concentration (AC50) came to 16.8 µM.

Turning to `COc1cccc(CN2CCC(N3CC(OCC4CC4)C34CCCCC4)CC2)n1` (stereo not drawn) [NCGC00463412-01], the concentration at half-maximal activity (AC50) worked out at 4.22 µM.

In the case of `O=C1CC2(CCN([S+](=O)([O-])c3cccc(C(F)(F)F)c3)CC2)Oc2ccccc2N1c1ccccc1` [NCGC00478390-01], the concentration at half-maximal activity (AC50) is 6.68 µM.

Regarding `O=C(Nc1ccc2n(c1=O)C[C@H]1C[C@@H]2CN(Cc2ccc(F)cc2)C1)c1cccs1` [NCGC00395674-01], the AC50 was 15.3 µM.

As to `O=C(NCC1CCCCC1)C12CN(Cc3ccccc3)CC1C(c1cccc([N+](=O)[O-])c1)=NO2` (stereo not drawn) [MLS000561441-01], the AC50 came to 6.68 µM.

Take `CCN(CC)CCNC(O)=C1C(=O)c2cccc3c2N(CCC3)C1=O` [MLS000078957-01]: the concentration at half-maximal activity (AC50) worked out at 10.6 µM.

As to `CO/N=C1\CN(c2nc3c(cc2F)c(=O)c(C(=O)O)cn3C2CC2)CC1CN` (stereo not drawn) [NCGC00095182-01], the concentration at half-maximal activity (AC50) worked out at 9.44 µM.

In the case of `Cc1cc(C)c(CN2C(=O)c3ccccc3[S+](=O)([O-])c3ccc(C(=O)OCC4CCCO4)cc32)c(C)c1` (stereo not drawn) [NCGC00127808-01], the concentration at half-maximal activity (AC50) worked out at 6.68 µM.

`CCc1nc(NC(=O)C2c3ccccc3C(=O)N(CCOC)C23CCCC3)sc1C` (stereo not drawn) [NCGC00423528-01]: the half-maximal activity concentration (AC50) came out at 5.96 µM.
